Assay results from publication PMC10707934, “Design and Synthesis of Novel α-Methylchalcone Derivatives, Anti-Cervical Cancer Activity, and Reversal of Drug Resistance in HeLa/DDP Cells” (Molecules, 2023).

Key:
Type in all cases: cell-based, human
HeLa/DDP cells [1] = assay: Transwell migration assay, HeLa/DDP; settings: 24 h, control 497
Method: HeLa (5 × 10^4 cells) was suspended in 200 μL of FBS-free medium. The top chamber contained the vehicle and various concentrations of compound 3k (2.5, 5, and 10 μM), cisplatin (20 μM) and chalcone (20 μM). The lower chamber was filled with 600 μL of medium containing 10% FBS. After incubating at 37 °C for 24 h, the cells on the top side of the Transwell membrane were removed with a cotton tip. Cells were fixed and stained with 4% paraformaldehyde (LEAGENE BIOTECHNOLOGY, Cat:DF0135, Lot:0823A23, Zhongguancun, Haidian District, Beijing, China) and 0.1% crystal violet solutions (Leagene Biotechnology, Cat:DZ0055, Lot:0508A23, Zhongguancun, Haidian District, Beijing, China) for 30 min to fix cells trapped on the perforated side of the membrane.
The experimental methods for the effects of compound 3k, cisplatin, and chalcone on HeLa/DDP cell invasion and migration were the same as in Section 3.3.6.

HeLa cells = assay: Annexin V-FITC/PI pro-apoptosis assay, HeLa; settings: 24 h
Method: Cell fluid (2 mL per well) at a concentration of 1.5 × 10^5 cells / mL was added to a 6-well plate and cultured in a cell incubator with 5% CO2 at 37 °C for 24 h. The old solution was discarded; 2 mL of the medium containing compound 3k was added to each well at a concentration gradient of 2.5, 5, and 10 μM; and the experiment was repeated three times at each concentration. Complete medium containing only cells was used as a blank control group, and 20 μM of cisplatin injection and chalcone was used as a positive control. Cells were harvested following a 24 h incubation period, adhering to the guidelines provided with the BD kit (BD Biosciences Pharmingen, 556547, 10975 Torreyana Road, San Diego, CA, USA). Subsequently, the cells were subjected to staining in a light-restricted environment at ambient temperature for a duration of 15 min, followed by filtration and analysis via flow cytometry.

SiHa cells = assay: MTT anti-proliferation assay, SiHa; settings: 48 h, mean ± SD
Method: All cell types, at a volume of 200 µL per well, were inoculated in 96-well plates at a density of 2.5 × 10^4 cells / mL and cultured for 24 h in an incubator with 5% CO2 at 37 °C. The old culture medium was replaced with 200 µL of fresh medium per well containing positive compounds, at concentrations of 1, 6.25, 12.5, 25, 50, and 100 μM. After 48 h of culture, 20 µL per well of 5 mg·mL^−1 MTT solution was added. After 4 h of culture, the old solution was discarded, and 150 µL per well of DMSO solution was added. Using an enzyme labeler (Thermo Fisher Scientific, Multiskan GO, Waltham, MA, USA), the plates were shaken for 10 min, OD values were determined at 490 nm, and the inhibition rate was calculated. Non-linear regression fitting of the cell growth rate was carried out using SPSS 23.0, and the IC50 of the compound was calculated. The inhibition rate was calculated using the formula: [(ODempty − ODtest)/(ODempty − ODnegative group)] × 100%, (ODempty blank group absorbance, ODtest absorbance of administration group, ODnegative group without cell culture medium). Each group contained six compound holes, and the experimental results averaged three trials. Complete medium containing only cells was used as the blank control; a complete medium without cells as was used as the negative control; and cisplatin, paclitaxel, and adriamycin were used as the positive controls. The concentration gradient was the same as that used for compounds 3a–3p.

HeLa/DDP cells [2] = assay: Cell cycle experiment (PI flow cytometry), HeLa/DDP; settings: 24 h; for blocking rate at the G2/M phase: control 4.05%
Method: A 2 mL volume of cell fluid per well at a concentration of 1 × 10^6 cells / mL was inoculated into a 6-well plate and cultured for 24 h. After removing the old solution, 2 mL of the cell culture medium containing 3k was added to each well, and each well was exposed for 24 h to a concentration gradient of 2.5, 5, and 10 μM. The experiment was repeated three times for each concentration. Complete culture medium containing only cells was used as the blank control group, and 20 μM cisplatin and chalcone injection were used as the positive control group. After 24 h of treatment, the cells were collected in a 15 mL centrifuge tube and fixed with 75% ethanol at 4 °C for 24 h. A 400 µL volume of PI/RNase staining buffer (BD Biosciences Pharmingen, 550825, 10975 Torreyana Road, San Diego, CA, USA) was uniformly dispersed and subjected to staining for 15 min at room temperature […]. The sample was subsequently filtered and analyzed using up-flow cytometry (BD, LSRFortessa, New York, NY, USA).
The experimental methods for the effect of compound 3k, cisplatin, and chalcone on the HeLa/DDP cell cycle were the same as in Section 3.3.5.

HeLa/DDP cells [3] = assay: MTT anti-cisplatin-resistant cervical cancer activity, HeLa/DDP; settings: for resistance index (RI): HeLa/DDP versus parental HeLa; for resistance index (RI) / IC50: 48 h; for IC50: HeLa/DDP, MTT, mean ± SD

SMILES | number of migrated cells (HeLa/DDP cells [1]; 20 μM) | pro-apoptotic rate (HeLa cells; 20 μM) [%] | IC50 (SiHa cells) [µM] | percentage of cells in G0/G1 phase (HeLa/DDP cells [2]; 20 μM, control 57.03%) [%] | resistance index (RI) (HeLa/DDP cells [3]) | IC50 (HeLa/DDP cells [3]) [µM] | number of migrated cells (HeLa/DDP cells [1]; 2.5 μM) | number of migrated cells (HeLa/DDP cells [1]; 5 μM) | number of migrated cells (HeLa/DDP cells [1]; 10 μM) | pro-apoptotic rate (HeLa cells; 2.5 μM) [%] | pro-apoptotic rate (HeLa cells; 5 μM) [%] | pro-apoptotic rate (HeLa cells; 10 μM) [%] | IC50 (SiHa cells; Homo sapiens) [µM] | blocking rate at the G2/M phase (HeLa/DDP cells [2]; 2.5 μM) [%] | blocking rate at the G2/M phase (HeLa/DDP cells [2]; 5 μM) [%] | blocking rate at the G2/M phase (HeLa/DDP cells [2]; 10 μM) [%] | inhibition rate against HeLa/DDP cell lines (HeLa/DDP cells [3]; HeLa/DDP, 0.25, 0.5, or 1 μM) | IC50 (HeLa/DDP cells [3]; Homo sapiens) [µM]
N.N.[Cl][Pt][Cl] [Cisplatin, cisplatin, reference compound] | 395 | 46.7 | 20.7 ± 1.85 | 65.07 | 7.90 | 103 ± 3.6 |  |  |  |  |  |  |  |  |  |  |  | 
COc1ccc(/C=C(\C)C(=O)c2ccc(Cl)c(Cl)c2)cc1OC [Compound 3k, (E)-1-(3,4-Dichlorophenyl)-3-(3,4-dimethoxyphenyl)-2-methylprop-2-en-1-one] |  |  |  |  | 1.07 |  | 251 | 179 | 113 | 29.6 | 47.2 | 64.8 | 14.5 ± 0.98 | 14.71 | 22.85 | 52.72 | less than 10% | 9.72 ± 0.73
